Series [1] deals with Neutrophil. Description: Inhibition of fMLF/CB-induced human Neutrophil activation assessed as reduction in superoxide anion generation preincubated with compound for 2 mins prior to CB induction for 3 mins followed by fMLF addition by spectrophotometric analysis. The class given is functional, cell-based.
Series [2] concerns Neutrophil. Description: Inhibition of fMLF/CB-induced human Neutrophil activation assessed as reduction in superoxide anion generation at 10 uM preincubated with compound for 2 mins prior to CB induction for 3 mins followed by fMLF addition by spectrophotometric analysis relative to control. The class given is functional. Particulars: 5 min.
Series [3] has as its system Neutrophil. The series is described as follows: Inhibition of fMLF/CB-induced human Neutrophil activation assessed as reduction in elastase release using MeO-Suc-Ala-Ala-Pro-Val-pnitroanilide as substrate incubated for 5 mins. The class given is functional, cell-based.
Series [4] deals with Neutrophil. Description: Inhibition of fMLF/CB-induced human Neutrophil activation assessed as reduction in elastase release at 10 uM using MeO-Suc-Ala-Ala-Pro-Val-pnitroanilide as substrate incubated for 5 mins relative to control. The class given is functional.
For series [5], the target named is Phosphodiesterase 4 (Homo sapiens) (UniProt P27815+Q08499+Q07343+Q08493). Description: Inhibition of PDE4 (unknown origin) at 50 uM incubated for 1 hr by scintillation proximity assay relative to control. The class given is protein assay. A general note: SPA uses beads or plates that emit light when radiolabelled molecules are held near them.
Series [6] relates to Neutrophil. Description: Inhibition of fMLF/CB-induced human Neutrophil activation assessed as reduction in superoxide anion generation at 1 to 1000 nM preincubated with compound for 2 mins prior to CB induction for 3 mins followed by fMLF addition in presence of KT5720 by spectrophotometric analysis. The class given is functional, cell-based. The note with it: dose 1-1000 nM, time 5.0 min.

The nature of series [7]: AUC (0 to infinity) in C57BL/6 mouse at 5 mg/kg, iv measured upto 360 mins by HPLC analysis. The class given is ADME, organism-based. The note with it: in vivo.
A short description of series [8]: Half life in C57BL/6 mouse at 5 mg/kg, iv measured upto 360 mins by HPLC analysis. The class given is ADME, organism-based. The note with it: in vivo.
The nature of series [9]: Clearance in C57BL/6 mouse at 5 mg/kg, iv measured upto 360 mins by HPLC analysis. The note with it: in vivo. The class given is ADME, organism-based.
Series [10] can be described thus: Apparent volume of distribution in C57BL/6 mouse at 5 mg/kg, iv measured upto 360 mins by HPLC analysis. The class given is ADME, organism-based. Particulars: in vivo, 6 h.
The target in series [11] is 3',5'-cyclic-AMP phosphodiesterase 4B (Homo sapiens) (UniProt Q07343). The series is described as follows: Inhibition of human recombinant PDE4B1 at 10 uM using […] as substrate preincubated with compound for 15 mins followed by substrate addition and measured after 30 mins by spectrofluorimetric analysis relative to control. The note with it: time 45.0 min.
The target in series [12] is 3',5'-cyclic-AMP phosphodiesterase 4D (Homo sapiens) (UniProt Q08499). Description: Inhibition of human recombinant PDE4D2 at 10 uM using […] as substrate preincubated with compound for 15 mins followed by substrate addition and measured after 30 mins by spectrofluorimetric analysis relative to control. Particulars: time 45.0 min.

SMILES strings stand for the structures. Active and inactive are the calls of the source. No cut-off for these calls is given here.

In general, IC50 refers to the concentration needed to halve the response being measured. In general, inhibition refers to the change of the read-out against control, counted positive when it falls. A word on the AUC(0-inf): it is the area under the concentration-time curve extrapolated to infinity. The half-life is how long it takes for the measured level to halve. Read a high half-life as slow decline. Usually clearance stands for the volume of plasma or blood freed of the substance per unit of time. A higher clearance goes with a high capacity for elimination.

Chain of 3',5'-cyclic-AMP phosphodiesterase 4D (Homo sapiens) (Q08499 whole entry): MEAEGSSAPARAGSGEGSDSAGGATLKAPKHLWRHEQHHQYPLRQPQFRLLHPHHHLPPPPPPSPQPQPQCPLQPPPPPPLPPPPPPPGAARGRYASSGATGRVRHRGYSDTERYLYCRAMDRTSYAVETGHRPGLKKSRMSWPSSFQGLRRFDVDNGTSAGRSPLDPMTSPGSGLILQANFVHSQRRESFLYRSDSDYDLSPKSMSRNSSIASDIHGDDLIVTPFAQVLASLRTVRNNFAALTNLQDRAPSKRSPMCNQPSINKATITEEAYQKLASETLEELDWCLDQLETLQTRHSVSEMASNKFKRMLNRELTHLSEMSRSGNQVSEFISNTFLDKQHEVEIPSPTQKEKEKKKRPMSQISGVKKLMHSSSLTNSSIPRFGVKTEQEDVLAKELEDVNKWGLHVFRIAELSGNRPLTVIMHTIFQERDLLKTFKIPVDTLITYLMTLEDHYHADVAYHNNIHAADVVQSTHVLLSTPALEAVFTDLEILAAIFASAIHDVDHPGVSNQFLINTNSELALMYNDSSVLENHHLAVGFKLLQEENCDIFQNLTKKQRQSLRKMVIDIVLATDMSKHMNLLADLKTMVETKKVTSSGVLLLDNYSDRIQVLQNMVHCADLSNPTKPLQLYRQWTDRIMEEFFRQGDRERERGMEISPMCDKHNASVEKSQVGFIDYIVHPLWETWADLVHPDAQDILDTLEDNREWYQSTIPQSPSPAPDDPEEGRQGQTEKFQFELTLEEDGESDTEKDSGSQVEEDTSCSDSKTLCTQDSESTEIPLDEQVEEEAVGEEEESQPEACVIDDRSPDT
Chain of 3',5'-cyclic-AMP phosphodiesterase 4B (Homo sapiens) (Q07343 whole entry): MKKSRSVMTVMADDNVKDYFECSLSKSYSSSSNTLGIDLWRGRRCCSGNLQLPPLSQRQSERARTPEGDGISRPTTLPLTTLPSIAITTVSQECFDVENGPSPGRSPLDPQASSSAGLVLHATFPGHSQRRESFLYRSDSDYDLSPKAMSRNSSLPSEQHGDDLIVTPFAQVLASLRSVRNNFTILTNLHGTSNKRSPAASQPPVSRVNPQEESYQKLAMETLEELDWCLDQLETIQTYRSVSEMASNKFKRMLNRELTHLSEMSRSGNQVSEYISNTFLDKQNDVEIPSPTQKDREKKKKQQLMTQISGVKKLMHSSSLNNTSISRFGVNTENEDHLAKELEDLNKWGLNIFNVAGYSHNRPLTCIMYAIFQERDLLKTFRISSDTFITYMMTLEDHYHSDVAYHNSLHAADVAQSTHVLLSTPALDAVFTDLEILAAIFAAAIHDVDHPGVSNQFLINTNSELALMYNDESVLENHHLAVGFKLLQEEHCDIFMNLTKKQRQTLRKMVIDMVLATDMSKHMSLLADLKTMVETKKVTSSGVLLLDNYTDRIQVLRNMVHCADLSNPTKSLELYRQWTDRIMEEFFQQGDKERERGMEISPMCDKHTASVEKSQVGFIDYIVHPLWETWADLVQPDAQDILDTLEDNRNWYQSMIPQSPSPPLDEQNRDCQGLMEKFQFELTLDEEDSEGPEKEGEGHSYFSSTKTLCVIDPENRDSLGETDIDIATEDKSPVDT

Turning to `OCc1ccc(-c2nn(Cc3ccccc3)c3ccccc23)o1`, the IC50 in series [1] and in series [3] was > 10 µM in each case. Further, the inhibition at 10 µM was 12.9% in series [2] and -2.64% in series [4]. The inhibition in series [5] was 60%.
`Fc1ccccc1Cn1nc(-c2cccs2)cc1-c1ccccc1`: the IC50 in series [1] is 0.0133 µM; in series [3], > 10 µM. For the same compound, the inhibition at 10 µM in series [2] is 72.2%; in series [4], 38.2%. Further, the inhibition result in series [6] was “Active”. Further, the AUC(0-inf) in series [7] is 900 ng·h/mL. The half-life in [8] was found to be 1.03 h. The same compound gave a clearance in [9] of 1.85 mL/min. Further, the Vz in series [10] was determined as 165 mL.
As to `Fc1ccccc1Cn1nc(-c2ccco2)cc1-c1ccccc1`, the IC50 was 0.00906 µM in [1] and > 10 µM in series [3]. Besides, the results for the inhibition at 10 µM in [2] and in series [4] were 66.5% and 37%, respectively. For the same compound, the inhibition entry in series [6] was “Active”. For the same compound, the inhibition in [11] is 83%; in [12] it was 85%. Moreover, the AUC(0-inf) in series [7] is 962 ng·h/mL. Besides, the half-life in [8] amounted to 1.32 h. In [9], the clearance came out at 1.97 mL/min. In addition, in series [10], the Vz turned out to be 225 mL.
For the compound `O=C(c1ccccc1F)n1nc(-c2ccco2)c2ccccc21`, the IC50 in series [1] is 0.34 µM; in series [3], > 10 µM. For the same compound, the inhibition at 10 µM is 69.5% in [2] and -9.57% in series [4].
In the case of `COc1cccc(Cn2nc(-c3ccccc3)cc2-c2ccccc2)c1`, the IC50 in [1] and in series [3] was > 10 µM in each case. Moreover, the inhibition at 10 µM in [2] was found to be 8.5%; in series [4], 1.65%.
On to `CCCCCCCn1nc(-c2ccc(C=O)o2)c2ccccc21`, for which the IC50 in [1] is > 10 µM; in series [3], 2.56 µM. The figures for the inhibition at 10 µM in [2] and in series [4] were 5.88% and 67.1%, respectively.
Regarding `O=Cc1ccc(-c2nn(CC3CCCCC3)c3ccccc23)o1`, the figures for the IC50 in [1] and in series [3] were 0.17 µM and 1.18 µM, respectively. In addition, the inhibition at 10 µM was 63.4% in [2] and 102% in series [4].
In the same order, the values of `CCCCCCCn1nc(-c2ccco2)cc1-c1ccccc1` are 0.694 µM, 2.13 µM, 101% and 115%.
As to `Fc1ccccc1Cn1nc(-c2ccco2)c2ccccc21`, the IC50 was 1.05 µM in series [1] and 2.11 µM in [3]. For the same compound, the results for the inhibition at 10 µM in series [2] and in series [4] were 100% and 94.5%, respectively.
The corresponding values for `Fc1cccc(Cn2nc(-c3cccs3)cc2-c2ccccc2)c1` are 0.0762 µM, > 10 µM, 73.3% and 35.5%.
In the same order, the values of `Brc1ccccc1Cn1nc(-c2ccco2)c2ccccc21` are 1.47 µM, 4.84 µM, 93.1% and 78%.

The record behind these values is ChEMBL document CHEMBL5634155, “Design and synthesis of pyrazole derivatives against neutrophilic inflammation” (Eur J Med Chem, 2023).
